Test results taken from ChEMBL document CHEMBL3352746, “Synthesis and anticancer activity of quinopimaric and maleopimaric acids’ derivatives” (Bioorg Med Chem, 2014).
Calls of active or inactive are those of the source. The calls are words filed in the database; no cut-off is given here.

Columns and labels:
SN12C = assay: Growth inhibition of human SN12C cells; assay type: functional
[1] = tested on: Lewis lung carcinoma cell line; assay: Antitumor activity against mouse LLC cells implanted in mouse assessed as tumor growth inhibition at 40 mg/kg, ip dosed daily for 5 days measured 5 days after treatment termination; assay type: functional; settings: 120 h, route intraperitoneal, read-out: TGI
TK-10 = assay: Growth inhibition of human TK10 cells; assay type: functional
P388 [2] = assay: Antitumor activity against mouse P388 cells implanted in mouse assessed as increase in life span at 10 mg/kg, ip dosed daily for 5 days administered 24 hrs after tumor implantation; assay type: functional; settings: route intraperitoneal
[3] = Antitumor activity against mouse CA-755 cells implanted in mouse assessed as tumor growth inhibition at 40 mg/kg, ip dosed daily for 5 days measured 8 to 9 days after treatment termination; assay type: functional; settings: CA-755, ip, route intraperitoneal, read-out: TGI
Mus musculus [4] = assay: Toxicity in mouse P388 cells implanted mouse assessed as mean spleen weight at 10 mg/kg, ip dosed daily for 5 days administered 24 hrs after tumor implantation; assay type: organism-based; parameters: dose 10 mg/kg, route intraperitoneal; settings: in vivo
[5] = Antitumor activity against mouse AKATOL cells implanted in mouse assessed as tumor growth inhibition at 40 mg/kg, ip dosed daily for 5 days measured 12 days after treatment termination; assay type: functional; settings: route intraperitoneal, read-out: TGI
P388 [6] = assay: Antitumor activity against mouse P388 cells implanted in mouse assessed as increase in life span at 40 mg/kg, ip dosed daily for 5 days administered 24 hrs after tumor implantation; assay type: functional; settings: route intraperitoneal
Mus musculus [7] = assay: Toxicity in mouse CA-755 cells implanted mouse assessed as mouse mortality at 40 mg/kg, ip dosed daily for 5 days; assay type: organism-based; parameters: dose 40 mg/kg, route intraperitoneal; settings: in vivo, 120 h
A498 = assay: Growth inhibition of human A498 cells; assay type: functional
Mus musculus [8] = assay: Toxicity in mouse P388 cells implanted mouse assessed as mean ascites volume at 10 mg/kg, ip dosed daily for 5 days administered 24 hrs after tumor implantation; assay type: organism-based; parameters: dose 10 mg/kg, route intraperitoneal; settings: in vivo
Mus musculus [9] = assay: Toxicity in mouse Ehrlich carcinoma cells implanted mouse assessed as mean spleen weight at 50 mg/kg, ip dosed daily for 5 days administered 48 hrs after tumor implantation; assay type: organism-based; parameters: dose 50 mg/kg, route intraperitoneal; settings: in vivo
[10] = Growth inhibition of human BT549 cells; assay type: functional
[11] = Growth inhibition of human SF295 cells; assay type: functional
[12] = tested on: Lewis lung carcinoma cell line; assay: Antitumor activity against mouse LLC cells implanted in mouse assessed as tumor growth inhibition at 40 mg/kg, ip dosed daily for 5 days measured 19 days after treatment termination; assay type: functional; settings: route intraperitoneal, read-out: TGI
[13] = Antitumor activity against mouse AKATOL cells implanted in mouse assessed as tumor growth inhibition at 40 mg/kg, ip dosed daily for 5 days measured 19 days after treatment termination; assay type: functional; settings: route intraperitoneal, read-out: TGI
HOP-62 = assay: Growth inhibition of human HOP62 cells; assay type: functional
HL-60(TB) = assay: Growth inhibition of human HL-60(TB) cells; assay type: functional
[14] = Growth inhibition of human LOXIMVI cells; assay type: functional; settings: LOX IMVI
[15] = Growth inhibition of human SF539 cells; assay type: functional
KM12 = assay: Growth inhibition of human KM12 cells; assay type: functional
[16] = Growth inhibition of human COLO205 cells; assay type: functional
[17] = Antitumor activity against mouse AKATOL cells implanted in mouse assessed as tumor growth inhibition at 40 mg/kg, ip dosed daily for 5 days measured 8 to 9 days after treatment termination; assay type: functional; settings: route intraperitoneal, read-out: TGI
SK-MEL-28 = assay: Growth inhibition of human SK-MEL-28 cells; assay type: functional
[18] = Growth inhibition of human UACC257 cells; assay type: functional
[19] = Antitumor activity against mouse AKATOL cells implanted in mouse assessed as tumor growth inhibition at 40 mg/kg, ip dosed daily for 5 days measured 1 day after treatment termination; assay type: functional; settings: route intraperitoneal, read-out: TGI
[20] = tested on: Lewis lung carcinoma cell line; assay: Antitumor activity against mouse LLC cells implanted in mouse assessed as tumor growth inhibition at 40 mg/kg, ip dosed daily for 5 days measured 16 days after treatment termination; assay type: functional; settings: route intraperitoneal, read-out: TGI
[21] = tested on: Lewis lung carcinoma cell line; assay: Antitumor activity against mouse LLC cells implanted in mouse assessed as tumor growth inhibition at 40 mg/kg, ip dosed daily for 5 days measured 12 days after treatment termination; assay type: functional; settings: route intraperitoneal, read-out: TGI
[22] = Antitumor activity against mouse CA-755 cells implanted in mouse assessed as tumor growth inhibition at 40 mg/kg, ip dosed daily for 5 days measured 16 days after treatment termination; assay type: functional; settings: CA-755, ip, route intraperitoneal, read-out: TGI
[23] = Antitumor activity against mouse AKATOL cells implanted in mouse assessed as tumor growth inhibition at 40 mg/kg, ip dosed daily for 5 days measured 16 days after treatment termination; assay type: functional; settings: route intraperitoneal, read-out: TGI
NCI60 = assay: Cytotoxicity against human NCI60 cells assessed as cell growth at 10 uM; assay type: functional
IGROV-1 = assay: Growth inhibition of human IGROV1 cells; assay type: functional
Mus musculus [24] = assay: Toxicity in mouse Ehrlich carcinoma cells implanted mouse assessed as mean ascites volume at 50 mg/kg, ip dosed daily for 5 days administered 48 hrs after tumor implantation; assay type: organism-based; parameters: dose 50 mg/kg, route intraperitoneal; settings: in vivo
T47D = assay: Growth inhibition of human T47D cells; assay type: functional
DU-145 = assay: Growth inhibition of human DU145 cells; assay type: functional
SNB-75 = assay: Growth inhibition of human SNB75 cells; assay type: functional
[25] = tested on: Lewis lung carcinoma cell line; assay: Antitumor activity against mouse LLC cells implanted in mouse assessed as increase in life span at 40 mg/kg, ip dosed daily for 5 days; assay type: functional; settings: 120 h, route intraperitoneal
P388 [26] = assay: Antitumor activity against mouse P388 cells implanted in mouse assessed as increase in life span at 20 mg/kg, ip dosed daily for 5 days administered 24 hrs after tumor implantation; assay type: functional; settings: route intraperitoneal
[27] = Growth inhibition of human UACC62 cells; assay type: functional
[28] = Growth inhibition of human PC3 cells; assay type: functional
[29] = read-out: pLC50 (the source's name) (converted)

## COC(=O)[C@]1(C)CCC[C@]2(C)[C@H]3C[C@H]4C(C(C)C)=C[C@]3(CC[C@H]21)[C@@H]1/C(=N/O)CC/C(=N\O)[C@@H]14
SN12C
  GI50: 1.86 µM
SN12C; [29]
  CC50: 8.13 µM
SN12C; read-out: pTGI (converted)
  TGI: 3.89 µM
[1]
  inhibition in vivo at 40 mg/kg: 33%
TK-10
  GI50: 9.12 µM
TK-10; [29]
  CC50: 56.2 µM
TK-10; read-out: pTGI (converted)
  TGI: 22.9 µM
P388 [2]
  ILS at 10 mg/kg: -4%
[3]
  inhibition in vivo at 40 mg/kg: 52%
Mus musculus [4]
  Activity: 95 mg
[5]
  inhibition in vivo at 40 mg/kg: 34%
P388 [6]
  ILS at 40 mg/kg: -7%
Mus musculus [7]
  Activity: Non-toxic
A498
  GI50: 2.24 µM
A498; [29]
  CC50: 25.1 µM
A498; read-out: pTGI (converted)
  TGI: 6.76 µM
Mus musculus [8]
  Activity: 1.3 mL
Mus musculus [9]
  Activity: 104 mg
[10]; BT-549
  GI50: 3.55 µM
[10]; BT-549, read-out: pLC50 (the source's name) (converted)
  CC50: 36.3 µM
[10]; BT-549, read-out: pTGI (converted)
  TGI: 11.2 µM
[11]; SF-295
  GI50: 5.89 µM
[11]; SF-295, read-out: pLC50 (the source's name) (converted)
  CC50: 64.6 µM
[11]; SF-295, read-out: pTGI (converted)
  TGI: 21.4 µM
[12]
  inhibition in vivo at 40 mg/kg: 37%
[13]
  inhibition in vivo at 40 mg/kg: 44%
HOP-62
  GI50: 15.1 µM
HOP-62; [29]
  CC50: 95.5 µM
HOP-62; read-out: pTGI (converted)
  TGI: 38 µM
HL-60(TB)
  GI50: 1.95 µM
HL-60(TB); [29]
  CC50: 36.3 µM
HL-60(TB); read-out: pTGI (converted)
  TGI: 4.57 µM
[14]
  GI50: 2 µM
[14]; [29]
  CC50: 7.76 µM
[14]; read-out: pTGI (converted)
  TGI: 3.98 µM
[15]; SF-539
  GI50: 9.12 µM
[15]; SF-539, read-out: pLC50 (the source's name) (converted)
  CC50: 46.8 µM
[15]; SF-539, read-out: pTGI (converted)
  TGI: 21.4 µM
KM12
  GI50: 3.39 µM
KM12; [29]
  CC50: 34.7 µM
KM12; read-out: pTGI (converted)
  TGI: 10.7 µM
[16]; COLO 205
  GI50: 2.19 µM
[16]; COLO 205, read-out: pLC50 (the source's name) (converted)
  CC50: 8.51 µM
[16]; COLO 205, read-out: pTGI (converted)
  TGI: 4.37 µM
[17]
  inhibition in vivo at 40 mg/kg: 41%
SK-MEL-28
  GI50: 9.33 µM
SK-MEL-28; [29]
  CC50: 53.7 µM
SK-MEL-28; read-out: pTGI (converted)
  TGI: 22.9 µM
[18]; UACC-257
  GI50: 3.63 µM
[18]; UACC-257, read-out: pLC50 (the source's name) (converted)
  CC50: 38.9 µM
[18]; UACC-257, read-out: pTGI (converted)
  TGI: 12 µM
[19]
  inhibition in vivo at 40 mg/kg: 57%
[20]
  inhibition in vivo at 40 mg/kg: 34%
[21]
  inhibition in vivo at 40 mg/kg: 30%
[22]
  inhibition in vivo at 40 mg/kg: 32%
[23]
  inhibition in vivo at 40 mg/kg: 47%
NCI60
  Activity: Active
IGROV-1; IGROV-1
  GI50: 4.57 µM
IGROV-1; IGROV-1, read-out: pLC50 (converted)
  CC50: > 100 µM
IGROV-1; IGROV-1, read-out: pTGI (converted)
  TGI: 21.9 µM
Mus musculus [24]
  Activity: 0.63 mL
T47D
  GI50: 1.91 µM
T47D; [29]
  CC50: 24.5 µM
T47D; read-out: pTGI (converted)
  TGI: 4.68 µM
DU-145; DU-145
  GI50: 3.02 µM
DU-145; DU-145, read-out: pLC50 (converted)
  CC50: > 100 µM
DU-145; DU-145, read-out: pTGI (converted)
  TGI: 15.8 µM
SNB-75
  GI50: 4.9 µM
SNB-75; [29]
  CC50: 63.1 µM
SNB-75; read-out: pTGI (converted)
  TGI: 20.4 µM
[25]
  ILS at 40 mg/kg: 18%
P388 [26]
  ILS at 20 mg/kg: -4%
[27]; UACC-62
  GI50: 4.68 µM
[27]; UACC-62, read-out: pLC50 (the source's name) (converted)
  CC50: 67.6 µM
[27]; UACC-62, read-out: pTGI (converted)
  TGI: 22.4 µM
[28]; PC-3
  GI50: 4.37 µM
[28]; PC-3, read-out: pLC50 (the source's name) (converted)
  CC50: 45.7 µM
[28]; PC-3, read-out: pTGI (converted)
  TGI: 15.1 µM
